Usually logD stands for the decadic logarithm of the distribution of all forms, ionised or not, between an organic phase and buffer at a given pH. As usually defined, the microsomal CLint is the capacity of the preparation to metabolise the compound, expressed as a volume cleared per time. The term IC90 denotes the point of the concentration-response curve where the effect stands at 90%. Broadly, the Vd is a proportionality between amount in the body and measured concentration, not a real space. A high value points to wide distribution into tissue. What is called clearance is the rate of elimination divided by the concentration. Low readings indicate inefficient removal, high ones efficient removal. In general, half-life refers to the time needed for the level to fall by half in the phase considered. A lower half-life goes with rapid decline. A word on the bioavailability: it is the share of a dose that reaches the circulation, judged against a reference dose that is usually intravenous. Low readings indicate little systemic uptake, high ones much systemic uptake.

Experimental findings from ChEMBL document CHEMBL1152883, “1-Amido-1-phenyl-3-piperidinylbutanes--CCR5 antagonists for the treatment of HIV: part 2” (Bioorg Med Chem Lett, 2009) are described below.

Data set [1] in a line: Lipophilicity, log D at pH 7.4. Type of data set: physicochemical. The conditions noted are these: buffer.
The test system of data set [2] is Liver microsomes. Nature of the data set: (§1) Metabolic stability in human liver microsomes assessed as clearance measured per mg of protein. Type of data set: ADME, Microsome. Conditions: microsomes. (Liver microsomes are vesicles of endoplasmic reticulum, rich in cytochrome P450 enzymes.)
Data set [3] can be described thus: as §1. Type of data set: ADME, Microsome. The conditions noted are these: liver microsomes.
The test system of data set [4] is Human immunodeficiency virus 1. Briefly: Antiviral activity against HIV1 BAL assessed as inhibition of viral replication. Type of data set: functional. The conditions noted are these: Human immunodeficiency virus 1, BAL.
Data set [5] can be described thus: Apparent permeability from basolateral to apical side of human Caco-2 cells. Type of data set: ADME, cell-based. The conditions noted are these: read-out: permeability.
Data set [6] is described as follows: Volume of distribution in iv dosed Sprague-Dawley rat. In kind it is ADME, organism-based. The conditions noted are these: in vivo.
A short description of data set [7]: Clearance in iv dosed Sprague-Dawley rat. In kind it is ADME, organism-based. Conditions: in vivo.
Data set [8] in a line: Apparent permeability from apical to basolateral side of human Caco-2 cells. In kind it is ADME, cell-based. The conditions noted are these: read-out: permeability. In general terms: Passage across Caco-2 layers is used to estimate intestinal permeability.
A short description of data set [9]: Half life in iv dosed Sprague-Dawley rat. Type of data set: ADME, organism-based. Conditions: in vivo.
Data set [10] is described as follows: Oral bioavailability in Sprague-Dawley rat. In kind it is ADME, organism-based. Conditions: in vivo.

On to `Cc1nnc(C(C)C)n1C1CCN(C(C)C[C@H](NC(=O)C2CCC(F)(F)CC2)c2ccccc2)CC1` (mixture of isomers; form 1), for which the pH-dependent lipophilicity (logD) in [1] (read-out: logD) came out at 2. The CL in [2] came to 19 µL/min/mg.

For the molecule `Cc1nnc(C(C)C)n1C1CCN(C(C)C[C@H](NC(=O)COCC(F)(F)F)c2ccccc2)CC1` (mixture of isomers), the microsomal CLint in [3] came out at 61.6 µL/min/mg.

On to `Cc1nnc(C(C)C)n1C1CCN(C(C)C[C@H](NC(=O)C(C)C)c2ccccc2)CC1` (mixture of isomers), for which the microsomal CLint in [3] is below 8 µL/min/mg.

For `Cc1nnc(C(C)C)n1C1CCN(C(C)C[C@H](NC(=O)N2CCOCC2)c2ccccc2)CC1` (mixture of isomers), the microsomal CLint in [3] is below 8 µL/min/mg.

Consider `Cc1nnc(C(C)C)n1C1CCN(C(C)C[C@H](NC(=O)CC(F)(F)F)c2ccccc2)CC1` (mixture of isomers), for which the microsomal CLint in [3] was found to be 11.4 µL/min/mg.

`Cc1nnc(C(C)C)n1C1CCN(C(C)C[C@H](NC(=O)C2CC(F)(F)C2)c2ccccc2)CC1` (mixture of isomers; form 1) displayed a logD in data set [1] of 2. Moreover, the CL in data set [2] is below 7 µL/min/mg.

In the case of `Cc1nnc(C(C)C)n1[C@H]1C[C@H]2CC[C@@H](C1)N2CC[C@H](NC(=O)C1CCC(F)(F)CC1)c1ccccc1` [MARAVIROC], the concentration for an effect of 90% (IC90) in data set [4] is 2.8 nM.

As to `Cc1nnc(C(C)C)n1[C@@H]1C[C@H]2CC[C@@H](C1)N2CC[C@H](NC(=O)C1CCC(F)(F)CC1)c1ccccc1` [MARAVIROC], in [5], the Papp B→A came out at 10 ×10⁻⁶ cm/s. In data set [6], this molecule came in with a Vd of 6.5 L/kg. In [7], this molecule registered a clearance of 74 mL/min/kg. For the same molecule, in data set [1] (read-out: logD), the logD is 1.9. Besides, in data set [8], the Papp A→B was determined as 1 ×10⁻⁶ cm/s. Besides, in [3], the microsomal CLint turned out to be 20 µL/min/mg. For the same molecule, the half-life in data set [9] is 0.9 h.

`Cc1nnc(C(C)C)n1C1CCN(C(C)C[C@H](NC(=O)CC2CC2)c2ccccc2)CC1` (mixture of isomers): in [1] (read-out: logD), the logD came to 1.9.

In the case of `COC(=O)N[C@@H](CC(C)N1CCC(n2c(C)nnc2C(C)C)CC1)c1ccccc1` (mixture of isomers), the log distribution coefficient (logD) in [1] (read-out: logD) turned out to be 1.5. Moreover, the microsomal CLint in data set [3] is below 7 µL/min/mg.

Turning to `CC(=O)N[C@@H](CC(C)N1CCC(n2c(C)nnc2C(C)C)CC1)c1ccccc1` (mixture of isomers), the microsomal CLint in [3] was below 8 µL/min/mg.

`Cc1nnc(C(C)C)n1C1CCN([C@H](C)C[C@H](NC(=O)C2CC(F)(F)C2)c2ccccc2)CC1` showed a Vd in [6] of 10 L/kg. The clearance in data set [7] was determined as 92 mL/min/kg. Also, the bioavailability in data set [10] was determined as 6%. The IC90 in [4] came to 1.8 nM. Moreover, the logD in [1] (read-out: logD) came out at 2.2. Also, the microsomal CLint in data set [3] was 12 µL/min/mg. For the same molecule, the half-life in data set [9] was 1.3 h.

Take `Cc1nnc(C(C)C)n1C1CCN(C(C)C[C@H](NC(=O)C2CCC(F)(F)CC2)c2ccccc2)CC1.Cl` (mixture of isomers; form 2): the log distribution coefficient (logD) in data set [1] worked out at 2. Moreover, in data set [3], the microsomal CLint came to 16 µL/min/mg.

As for `Cc1nc(C(C)C)n([C@@H]2C[C@H]3CC[C@@H](C2)N3CC[C@H](NC(=O)C2CCC(F)(F)CC2)c2ccccc2)n1`, the Papp B→A in data set [5] was determined as 26 ×10⁻⁶ cm/s. For the same molecule, the logD in data set [1] (read-out: logD) came to 2.7. Further, the Papp A→B in [8] worked out at 11 ×10⁻⁶ cm/s. The microsomal CLint in data set [3] was determined as 6 µL/min/mg.

Consider `Cc1nnc(C(C)C)n1C1CCN(C(C)C[C@H](NC(=O)C2CC2)c2ccccc2)CC1` (mixture of isomers), for which, in [3], the microsomal CLint is below 8 µL/min/mg.

In the case of `Cc1nnc(C(C)C)n1C1CCN(C(C)C[C@H](NC(=O)C2CCCCC2)c2ccccc2)CC1` (mixture of isomers), the logD in data set [1] (read-out: logD) was determined as 2.5. In [3], the microsomal CLint stood at 139 µL/min/mg.

In the case of `Cc1nnc(C(C)C)n1C1CCN(C(C)C[C@H](NC(=O)C2CC(F)(F)C2)c2ccccc2)CC1` (mixture of isomers; form 2), the logD in data set [1] (read-out: logD) worked out at 1.9. The microsomal CLint in data set [3] was below 7 µL/min/mg.

For `CC(=O)N1CCC(C(=O)N[C@@H](CC(C)N2CCC(n3c(C)nnc3C(C)C)CC2)c2ccccc2)CC1` (mixture of isomers), the microsomal CLint in data set [3] is below 8 µL/min/mg.

Regarding `Cc1nnc(C(C)C)n1C1CCN(C(C)C[C@H](NC(=O)C2CCOCC2)c2ccccc2)CC1` (mixture of isomers), in [3], the intrinsic clearance (microsomal CLint) was determined as 10.8 µL/min/mg.

With `Cc1nnc(C(C)C)n1C1CCN([C@@H](C)C[C@H](NC(=O)C2CCC(F)(F)CC2)c2ccccc2)CC1`, in data set [1] (read-out: logD), the logD was found to be 2.2. For the same molecule, the microsomal CLint in [3] was below 7 µL/min/mg.

Take `Cc1nnc(C(C)C)n1C1CCN(C(C)C[C@H](NC(=O)C2CCS(=O)(=O)CC2)c2ccccc2)CC1` (mixture of isomers): in data set [1] (read-out: logD), the logD is 0.5.
